Results: patent US7910559B2, “Decladinosyl-macrolides with anti-inflammatory activity” (GlaxoSmithKline istrazivacki centar Zagreb d.o.o., priority 2005, dated 2011)
Like-named read-outs stand apart in the source and are kept apart here.

Columns and labels:
Format in all cases: cell-based
[1] = test system: human peripheral blood mononuclear cells (PBMC); test: Human peripheral blood mononuclear cell proliferation in vitro ((3H)thymidine incorporation); conditions: Homo sapiens, PBMC, read-out: Percentage of inhibition of proliferation of stimulated PBMC; for inhibition at 10 µM: compound 10 μM; for inhibition at 50 µM: compound 50 μM
Description: Substances, used in in vitro experiments, were dissolved in dimethyl sulfoxide (DMSO) (Kemika, Croatia) at concentrations of 50 mM and 10 mM and were further diluted to the final concentrations of […] in 1 mL Dulbecco's modified Eagle medium (DMEM) supplemented with 1% heat inactivated fetal bovine serum (FBS), 1% glutamax, 50 U/ml penicillin, 50 μg/ml streptomycin and 2.5 μg/mL Fungizone (amphotericin B). Media and all media supplements were purchased from Gibco, Australia, except FBS that was from Sigma, USA.
Heparinized peripheral blood was obtained from healthy donors, and peripheral blood mononuclear cells (PBMC) were isolated by Histopaque 1077 (Sigma, USA) density centrifugation at 400 g for 30 minutes. Collected PBMC were centrifuged in plasma at 400 g/10 min, resuspended and washed in RPMI 1640 (Institute of Immunology, Croatia) by centrifugation.
Influence of substances at two different concentrations (50 μM and 10 μM) on proliferation of human peripheral blood mononuclear cells (PBMC) was assessed.
Heparinized peripheral blood was obtained from healthy donors, and PBMC were isolated by Histopaque 1077 (Sigma, USA) density centrifugation at 400 g for 30 minutes. 5×10^4 cells/well were cultured for 3 days in the RPMI medium as described above, in the presence (positive control) or absence (negative control) of stimulators [PHA (2.5 μg/mL) (Sigma, USA) or both PMA (10 ng/mL) (Sigma, USA) and ionomycin (500 ng/mL) (Calbiochem, USA)] and tested substances at 37° C. in 5% CO2 and 90% humidity. The cells were pulsed with 1 μCi of (^3H)thymidine (Amersham, USA) per well during the last 18 h of the cultures and were harvested on a 96-well filter (Packard Bioscience, USA) with a multiple cell harvester (Packard, USA). The incorporation of (^3H)thymidine in activated cells was measured by TopCount NXT (Packard, USA).
Inhibition of cell proliferation (as a percentage) was calculated using the following formula: % inhibition=(1−(^3H)thymidine incorporation expressed in counts per minute (cpm) in sample/(3H)thymidine incorporation expressed in cpm in positive control)×100 where “positive control” refers to stimulated samples not treated with substances.

human IL-8 = test: Inhibition of IL-8 production by stimulated human peripheral blood leukocytes in vitro (ELISA); conditions: Homo sapiens, Leukocyte, PBL, read-out: Percentage of inhibition of IL-8 production; for inhibition at 10 µM: compound 10 μM; for inhibition at 50 µM: compound 50 μM
Summary of the method: (§1)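 Human PBL from healthy donors preincubated 2 h at 37 °C with compound, then stimulated overnight with 2 μg/mL LPS, 1 μg/mL PMA or 120 μg/mL zymosan. Supernatant cytokines measured by sandwich ELISA. % inhibition is relative to stimulated, untreated cells.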

human IL-6 = test: Inhibition of IL-6 production by stimulated human peripheral blood leukocytes in vitro (ELISA); conditions: Homo sapiens, Leukocyte, PBL, read-out: Percentage of inhibition of IL-6 production; for inhibition at 10 µM: compound 10 μM; for inhibition at 50 µM: compound 50 μM
Summary of the method: as §1

human TNF-α = test: Inhibition of TNF-α production by stimulated human peripheral blood leukocytes in vitro (ELISA); conditions: Homo sapiens, Leukocyte, PBL, read-out: Percentage of inhibition of TNF-α production; for inhibition at 10 µM: compound 10 μM; for inhibition at 50 µM: compound 50 μM
Summary of the method: as §1

human IL-1β = test: Inhibition of IL-1β production by stimulated human peripheral blood leukocytes in vitro (ELISA); conditions: Homo sapiens, Leukocyte, PBL, read-out: Percentage of inhibition of IL-1β production; for inhibition at 10 µM: compound 10 μM; for inhibition at 50 µM: compound 50 μM
Summary of the method: as §1

THP-1 = conditions: human, 24 h
Description: (§2) Anti-inflammatory activity of compounds, i.e. observed inhibition of cytokine production and inhibition of proliferation in vitro, is not a consequence of their cytotoxicity.
(§3) Measurement of the succinate dehydrogenase activity in living cells was performed in order to assess the cytotoxicity of compounds of the invention. Cells were cultured for 24 hours in RPMI medium as described above at 37° C., in the presence of the tested compounds at concentrations of 50 μM and 12.5 μM. Afterwards, MTT [3-(4,5-dimethylthiazole-2-yl)-2,5-diphenyl tetrazolium bromide] (Promega, USA) as detection reagent was added and incubated for 0.5-2 hours. The amount of produced MTT-Formazan was determined spectrophotometrically at 490 nm (Mosmann, J. Immunol. Methods, 1983, 65: 55-63).
(§4) Percentage of viable cells was calculated using the following formula: % viable cells=[…]

Hep G2 = conditions: human, 24 h
Description: as §2, §3, §4

A549 = conditions: human, 24 h
Description: as §2, §3, §4

| SMILES | inhibition at 10 µM ([1]; PHA stimulation) [%] | inhibition at 50 µM ([1]; PHA stimulation) [%] | inhibition at 10 µM ([1]; PMA + ionomycin stimulation) [%] | inhibition at 50 µM ([1]; PMA + ionomycin stimulation) [%] | inhibition at 10 µM (human IL-8; LPS stimulation) [%] | inhibition at 50 µM (human IL-8; LPS stimulation) [%] | inhibition at 10 µM (human IL-8; PMA stimulation) [%] | inhibition at 50 µM (human IL-8; PMA stimulation) [%] | inhibition at 10 µM (human IL-8; zymosan stimulation) [%] | inhibition at 50 µM (human IL-8; zymosan stimulation) [%] | inhibition at 10 µM (human IL-6; LPS stimulation) [%] | inhibition at 50 µM (human IL-6; LPS stimulation) [%] | inhibition at 10 µM (human IL-6; PMA stimulation) [%] | inhibition at 50 µM (human IL-6; PMA stimulation) [%] | inhibition at 10 µM (human IL-6; zymosan stimulation) [%] | inhibition at 50 µM (human IL-6; zymosan stimulation) [%] | inhibition at 10 µM (human TNF-α; LPS stimulation) [%] | inhibition at 50 µM (human TNF-α; LPS stimulation) [%] | inhibition at 10 µM (human TNF-α; PMA stimulation) [%] | inhibition at 50 µM (human TNF-α; PMA stimulation) [%] | also measured |
| --- | --- | --- | --- | --- | --- | --- | --- | --- | --- | --- | --- | --- | --- | --- | --- | --- | --- | --- | --- | --- | --- |
| CC[C@H]1OC(=O)[C@H](C)[C@@H](O[C@H]2C[C@@](C)(OC)[C@@H](O)[C@H](C)O2)[C@H](C)[C@@H](O[C@@H]2O[C@H](C)C[C@H](N(C)C)[C@H]2O)[C@](C)(O)C[C@@H](C)CN(C)[C@H](C)[C@@H](O)[C@]1(C)O [azithromycin, reference compound] | 5 | 29 | 9 | 31 | 0 | 0 | 0 | 0 | 0 | 0 | 15 | 40 | 0 | 0 | 20 | 75 | 36 | 20 | 0 | 0 | inhibition at 10 µM (human TNF-α; zymosan stimulation): 6%; inhibition at 50 µM (human TNF-α; zymosan stimulation): 64%; inhibition at 10 µM (human IL-1β; LPS stimulation): 28%; inhibition at 50 µM (human IL-1β; LPS stimulation): 48%; inhibition at 10 µM (human IL-1β; PMA stimulation): 0%; inhibition at 50 µM (human IL-1β; PMA stimulation): 0%; inhibition at 10 µM (human IL-1β; zymosan stimulation): 20%; inhibition at 50 µM (human IL-1β; zymosan stimulation): 75%; Percentage of viable cells after treatment (THP-1; 12.5 μM): 100%; Percentage of viable cells after treatment (THP-1; 50 μM): >95%; Percentage of viable cells after treatment (Hep G2; 12.5 μM): 100%; Percentage of viable cells after treatment (Hep G2; 50 μM): >95%; Percentage of viable cells after treatment (A549; 12.5 μM): 100%; Percentage of viable cells after treatment (A549; 50 μM): 100% |
| CC[C@H]1OC(=O)[C@H](C)[C@@H](OC(=O)CCN(CC)CC)[C@H](C)[C@@H](O[C@@H]2O[C@H](C)C[C@H](N(C)C)[C@H]2O)[C@](C)(OC)C[C@@H](C)C(=O)[C@H](C)[C@@H](O)[C@]1(C)O [Example 5, 3-O-(3-Diethylamino-propionyl)-3-O-decladinosyl-6-O-methyl-erythromycin A] | 99 | 100 | 90 | 100 | 22 | 95 | 48 | 83 | 48 | 100 | 38 | 100 | 78 | 100 | 51 | 100 | 3 | 92 | 29 | 100 | inhibition at 10 µM (human TNF-α; zymosan stimulation): 17%; inhibition at 50 µM (human TNF-α; zymosan stimulation): 100%; inhibition at 10 µM (human IL-1β; LPS stimulation): 75%; inhibition at 50 µM (human IL-1β; LPS stimulation): 80%; inhibition at 10 µM (human IL-1β; PMA stimulation): 91%; inhibition at 50 µM (human IL-1β; PMA stimulation): 100%; inhibition at 10 µM (human IL-1β; zymosan stimulation): 68%; inhibition at 50 µM (human IL-1β; zymosan stimulation): 100%; Percentage of viable cells after treatment (THP-1; 12.5 μM): 100%; Percentage of viable cells after treatment (THP-1; 50 μM): >80%; Percentage of viable cells after treatment (Hep G2; 12.5 μM): >86%; Percentage of viable cells after treatment (Hep G2; 50 μM): 100%; Percentage of viable cells after treatment (A549; 12.5 μM): 100%; Percentage of viable cells after treatment (A549; 50 μM): 100% |
| CC[C@H]1OC(=O)[C@H](C)[C@@H](O[C@H]2C[C@@](C)(OC)[C@@H](O)[C@H](C)O2)[C@H](C)[C@@H](O[C@@H]2O[C@H](C)C[C@H](N(C)C)[C@H]2O)[C@](C)(OC)C[C@@H](C)C(=O)[C@H](C)[C@@H](O)[C@]1(C)O [clarithromycin, reference compound] | 0 | 7 | 9 | 14 | 23 | 0 | 33 | 0 | 0 | 0 | 11 | 0 | 0 | 0 | 28 | 0 | 0 | 0 | 0 | 0 | inhibition at 10 µM (human TNF-α; zymosan stimulation): 0%; inhibition at 50 µM (human TNF-α; zymosan stimulation): 0%; inhibition at 10 µM (human IL-1β; LPS stimulation): 0%; inhibition at 50 µM (human IL-1β; LPS stimulation): 0%; inhibition at 10 µM (human IL-1β; PMA stimulation): 26%; inhibition at 50 µM (human IL-1β; PMA stimulation): 33%; inhibition at 10 µM (human IL-1β; zymosan stimulation): 36%; inhibition at 50 µM (human IL-1β; zymosan stimulation): 59%; Percentage of viable cells after treatment (THP-1; 12.5 μM): 100%; Percentage of viable cells after treatment (THP-1; 50 μM): >95%; Percentage of viable cells after treatment (Hep G2; 12.5 μM): 100%; Percentage of viable cells after treatment (Hep G2; 50 μM): 100%; Percentage of viable cells after treatment (A549; 12.5 μM): 100%; Percentage of viable cells after treatment (A549; 50 μM): 100% |
